Measurements from patent US20020058699A1, “Methods for treating seizure disorders by inhibiting MAPK pathway activation” (priority 2000, published 2002).
Entries after “also recorded” stand apart in the source; their conditions may differ.

Assays:
[1] = system: transient K+ currents composed of Kv4.2 subunits; assay: Transient K+ currents recorded in distal dendrites of hippocampal area CA1 slices; type: cell-based
Method: MEK inhibitor PD098059 ([…]) or vehicle was applied to the hippocampal CA1 slices at least 20 minutes before recording conductance.
The functional consequence of MAPK inhibition on transient K^+currents composed of Kv4.2 subunits as recorded in distal dendrites of hippocampal area CA1 was evaluated. The MEK inhibitor PD098059 ([…]) or vehicle was applied to the hippocampal CA1 slices at least 20 min prior to recording conductance.

Kv4.2 [2] = assay: Phospho-Kv4.2 Western blotting of hippocampal membrane fractions from kainate and control animals; type: in vivo, rat
Method: Western blotting using the phospho-Kv4.2 antibody to the ERK sites was performed on membrane fractions from kainate and control animals pretreated with SL327 as described in Example 1. See also Adams et al., J. Neurochem. 75:2277-2287 (2000), and Anderson et al., J. Biol. Chem. 275:5337-5346 (2000). Animals were sacrificed 30 minutes after kainate (before overt seizures) and 1 hour after continuous motor seizures.

ERK MAPK (p42 and p44) = assay: Hippocampal ERK activation by Western blotting (phospho-ERK and total ERK); type: in vivo, rat; conditions: for basal ERK phosphorylation: CTL+SL327 400 mg/kg; for kainate-induced ERK phosphorylation: KA+SL327 400 mg/kg; for basal ERK activation (phospho-ERK): control+SL327 100 mg/kg; for kainate-induced ERK activation (phospho-ERK): kainate+SL327 100 mg/kg; for ERK activation (phospho-ERK): kainate+vehicle (PEG400/ETOH)
Method: Hippocampal ERK activation was quantified by Western blotting using the method described by Atkins el al.[Atkins et al., Nat. Neurosci. 1:602-609 (1998)] with minor modifications. In brief, animals were sacrificed at 30 minutes and after 1 hr of class 5 seizures (150 min post injection) and the hippocampus was dissected. CA1, CA3 and dentate subregions were dissected in ice-cold saline and homogenates prepared by extracting with denaturing detergent. Protein concentrations were deteremined by Bradford Assay. Homogenates were subjected to Western blotting (immunoblots) prepared by routine methods (for example, see Harlow and Lane, in ANTIBODIES: A LABORATORY MANUAL, Cold Spring Harbor Laboratory Press (1988)). Blotted protein was detected using antibodies to total ERK (1:10,000) and dually phosphorylated, activated ERK MAPK (p42 and p44)(1:1000)(Cell Signaling). Enzyme activity associated with a secondary antibody was detected by incubation with Enhanced Chemiluminescent Reagent (BioRad Laboratories, Hercules Calif.) as substrate. Immunoreactivity of the total ERK and dually phosphorylated activated ERK MAPK in the blot was quantified using densitometry (Scion) for representative blots of p42 and analyzed by Student's t-test.
(§1) Adult rats were injected IP with SL327 100 mg/kg or vehicle alone (PEG400/ETOH) were administered 30 minutes later with kainate or vehicle (saline). Animals were sacrificed at following 1 hour of kainate-induced seizures or three hours after kainate injection. Hippocampal regions CA1, CA3, and dentate were removed and processed for Western blotting, as described in Example 1.
ERK phosphorylation in brain tissue was evaluated in kainate challenged animals pretreated with 400 mg/kg SL327. […] CA1, CA3, and dentate were dissected and processed for Western blotting as described in Example 1. […] Tukey's Multiple Comparison Test: ***p<0.001.

[3] = system: kainate-induced limbic motor seizures; assay: Kainate-induced seizures scored by Racine Classification Scale; type: in vivo, rat
Method: Male Sprague-Dawley rats (125-200 gm) were administered kainate at a dose of 15 mg/kg IP while the control animals (CTL) received vehicle IP (saline). Seizures were scored independently by two investigators in accordance with the Racine Classification Scale (0=no seizures, 1=mouth/face movements; 2=head nodding; 3=forelimb clonus; 4=rearing; and 5=rearing and falling). [Ben-Ari et al., Devl. Brain. Res. 14:284-288 (1985)]. Seizure score is shown plotted against time in the kainate-treated and control (vehicle-injected) animals.
as §1
Animals were treated as described in Example 2 except that SL327 was administered at 400 mg/kg.

[4] = Behavioral observation of animals treated with SL327; type: in vivo, rat
CREB = assay: Phospho-CREB Western blots of hippocampus; type: in vivo, rat
Method: Western blots prepared using CA1, CA3 and dentate regions of the hippocampus from rats following kainate-induced status epilepticus (KA, n=3) or vehicle alone (CTL, n=3) were performed using phospho-CREB antibodies. […] There is a small but significant decrease in CREB phosphorylation in CA3 (CA3 80.4±9.0%; *p<0.05, ***p<0.001).
Hippocampal region CA1 was removed 2 hours after rats were treated IP with the MEK inhibitor, SL327 (100 mg/kg) or vehicle alone. Western blots were developed using the phosho-CREB antibody.

phospho-ERK = assay: Phospho-ERK immunohistochemistry of hippocampus; type: in vivo, rat; conditions: 150 min after kainate; stratum oriens of CA1, stratum radiatum of CA1 and CA3, dentate hilus, mossy fiber inputs to CA3
Method: Immunohistochemical analysis of stained neural tissue was performed as described by Varga et al., Learn Mem 7;321-322 (2000), with the following modifications. In this case, kainate and control animals were sacrificed at 150 minutes following injection, while in stage 5 seizures for about 1 hour. After tissue fixation, 20-micron sections were thaw-mounted and incubated in 0.3% H2O2 in methanol for 30 minutes at RT, washed in PBST (PBS containing 0.2% Triton X-100), and blocked in PBST containing 5% normal goat serum (NGS). Sections were then incubated with the phospho-ERK antibody (1:100) overnight, washed with PBST, and incubated with a 1:200 dilution of goat anti-rabbit biotinylated secondary antibody for 30 minutes at RT. After washing and incubation with a 1:50 dilution of ABC reagent (Pierce) for 30 minutes at RT, sections were again washed in PBST and then stained using metal enhanced DAB. Sections were then rinsed, cleared, and coverslipped using a xylene based medium.

phospho-Kv4.2 = assay: Phospho-Kv4.2 immunohistochemistry of hippocampus; type: in vivo, rat; conditions: after kainate-induced seizures; stratum oriens and radiatum of CA1 and CA3, dentate hilus
Method: [insert*: see symbol after “antibody”] Immunohistochemistry using phospho-Kv4.2 antibody (phospho-Kv4.2) to the ERK sites was performed as described in Example 1 for the same animal groups. […] These areas include stratum oriens and stratum radiatum of areas CA1 and CA3 and the dentate hilus.

Kv4.2 [5] = conditions: U0126 20 μM, rat hippocampal slices, CA1
Method: Rat hippocampal slices were bathed in vehicle with MEK inhibitor U0126 (20 μM) or vehicle alone (CTL).

[6] = SL327 100 mg/kg IP 30 min before kainate
[7] = vehicle-treated kainate group (no SL327)

COc1cccc(-c2cc(=O)c3ccccc3o2)c1N [PD098059, 2-(2′-amino-3′-methoxyphenyl)-oxanaphthalen-4-one]
effect on conductance / voltage-dependence of K+ currents in dendrites ([1]; MEK inhibitor applied to hippocampal CA1 slices at least 20 min before recording): hyperpolarizing shift; also recorded: Conductance with inhibitor was increased compared to controls at almost all voltages applied
V½ of steady-state activation, after compound ([1]; as printed: after compound, PD098059 50 μM applied at least 20 min before recording, n=10): −2 mV
V½ of steady-state activation, before compound ([1]; as printed: before compound, n=7): −9 mV

N#CC(=C(N)Sc1ccc(N)cc1)c1ccccc1C(F)(F)F [SL327, Z- and E-α-[amino[(4-aminophenyl)thio]methylene]-2-(trifluoromethyl)benzeneacetonitrile]
phospho-Kv4.2 (Kv4.2 [2]; KA+SL327 400 mg/kg, CA1): 152.8±41.4 % of CTL+SL327
phospho-Kv4.2 (Kv4.2 [2]; KA+SL327 400 mg/kg, CA3): 170.8±16.6 % of CTL+SL327
phospho-Kv4.2 (Kv4.2 [2]; KA+SL327 400 mg/kg, dentate): 66.6±10.36 % of CTL+SL327
basal ERK phosphorylation (ERK MAPK (p42 and p44); CA1): 8.4±7.2 % of CTL+Vehicle
basal ERK phosphorylation (ERK MAPK (p42 and p44); CA3): 2.9±0.5 % of CTL+Vehicle
basal ERK phosphorylation (ERK MAPK (p42 and p44); dentate): 3.1±0.8 % of CTL+Vehicle
kainate-induced ERK phosphorylation (ERK MAPK (p42 and p44); CA1): 31.5±10.5 % of CTL+Vehicle
kainate-induced ERK phosphorylation (ERK MAPK (p42 and p44); CA3): 26.2±10.8 % of CTL+Vehicle
kainate-induced ERK phosphorylation (ERK MAPK (p42 and p44); dentate): 24.7±9.9 % of CTL+Vehicle
total ERK1/ERK2 MAPK protein (ERK MAPK (p42 and p44); SL327 400 mg/kg pretreatment, total ERK antibody): no changes in total protein
basal ERK activation (phospho-ERK) (ERK MAPK (p42 and p44); CA1): 46.05 (±15.89) % control
basal ERK activation (phospho-ERK) (ERK MAPK (p42 and p44); CA3): 37.51 (±9.59) % control
basal ERK activation (phospho-ERK) (ERK MAPK (p42 and p44); dentate): 32.16 (±11.46) % control
kainate-induced ERK activation (phospho-ERK) (ERK MAPK (p42 and p44); CA1): 220.70 (±35.80) % control
kainate-induced ERK activation (phospho-ERK) (ERK MAPK (p42 and p44); CA3): 143.60 (±22.26) % control
kainate-induced ERK activation (phospho-ERK) (ERK MAPK (p42 and p44); dentate): 195.6 (±18.58) % control
animals with class 5 seizures [3, 6]: 100%
block of kainate-induced seizures [3, 6]: did not block kainate-induced seizures
block of kainate-induced limbic motor seizures ([3]; SL327 400 mg/kg IP 30 min before kainate 15 mg/kg): blocks limbic motor status epilepticus; also recorded: effectively blocked kainate-induced limbic motor seizures
sedation ([4]; SL327 400 mg/kg, all groups): modest degree of apparent sedation
locomotor activity ([4]; SL327 400 mg/kg, some animals in kainate and control groups): increase in locomotor activity
lethargy or other behavioral changes ([4]; control animals, SL327 100 mg/kg): No obvious lethargy or other behavioral changes
activated CREB (phospho-CREB) (CREB; CA1, 2 hours after SL327 100 mg/kg IP): reduces the amount of activated CREB
unspecified quantity, % of control ([1]; n=2, Control 85.55%): 61.83 % of control

C=C(C)[C@H]1CN[C@H](C(=O)O)[C@H]1CC(=O)O [kainate]
phospho-ERK staining (phospho-ERK): increased greatly
ERK phosphorylation of Kv4.2 (Kv4.2 [2]; CA1, 30 min after kainate injection): 48.80±6.95 % control
ERK phosphorylation of Kv4.2 (Kv4.2 [2]; CA3, 30 min after kainate injection): 128.70±29.12 % control
phospho-Kv4.2 (Kv4.2 [2]; KA+Vehicle, CA1, after 1 hr limbic motor seizures): 535.5±84.1 % of CTL+Vehicle
phospho-Kv4.2 (Kv4.2 [2]; KA+Vehicle, CA3, after 1 hr limbic motor seizures): 442.0±57.0 % of CTL+Vehicle
phospho-Kv4.2 (Kv4.2 [2]; KA+Vehicle, dentate, after 1 hr limbic motor seizures): 1177.0±361.1 % of CTL+Vehicle
ERK phosphorylation of Kv4.2 (Kv4.2 [2]; dentate, 30 min after kainate injection): 109.10±11.09 % control
phospho-Kv4.2 staining (phospho-Kv4.2): increase in phospho-Kv4.2
phospho-ERK2 immunoreactivity (ERK MAPK (p42 and p44); CA1, 30 min after kainate 15 mg/kg IP, prior to behavioral seizures): 218.9 (±40.66) % CTL
phospho-ERK2 immunoreactivity (ERK MAPK (p42 and p44); CA1, 150 min after kainate, class 5 seizures): 165.5±16.5 % of control
phospho-ERK2 immunoreactivity (ERK MAPK (p42 and p44); CA3, 30 min after kainate 15 mg/kg IP): 206.80 (±31.61) % CTL
phospho-ERK2 immunoreactivity (ERK MAPK (p42 and p44); CA3, 150 min after kainate, class 5 seizures): 153.1±10.3 % of control
phospho-ERK2 immunoreactivity (ERK MAPK (p42 and p44); dentate, 30 min after kainate 15 mg/kg IP): 305.50 (±58.26) % CTL
phospho-ERK2 immunoreactivity (ERK MAPK (p42 and p44); dentate, 150 min after kainate, class 5 seizures): 224.8±34.1 % of control
total MAPK immunoreactivity (ERK MAPK (p42 and p44); kainate versus control, total MAPK antibody): No difference
ERK activation (phospho-ERK) (ERK MAPK (p42 and p44); CA1): 215.40 (±24.19) % control
ERK activation (phospho-ERK) (ERK MAPK (p42 and p44); CA3): 196.60 (±6.69) % control
ERK activation (phospho-ERK) (ERK MAPK (p42 and p44); dentate): 219.60 (±8.82) % control
seizure class (Racine Classification Scale) ([3]; kainate 15 mg/kg IP, male Sprague-Dawley rats, within 90 min, persisted until 150 min): all of the animals studied developed class 5 seizures
animals progressed to Class 3 seizures [3, 7]: 1/9
animals progressed to Class 5 seizures [3, 7]: 6/9
animals that developed limbic motor seizures [3, 7]: 78%
animals with no evidence of motor seizures [3, 7]: 2/9
CREB phosphorylation (CREB; CA1, kainate-induced status epilepticus): 162.9±29.4 % of control
CREB phosphorylation (CREB; CA3, kainate-induced status epilepticus): 80.4±9.0%
CREB phosphorylation (CREB; dentate, kainate-induced status epilepticus): 138.0±4.4 % of control

N#CC(=C(/N)Sc1ccccc1N)/C(C#N)=C(\N)Sc1ccccc1N [U0126]
detection by MAPK-Kv4.2 phospho-selective antibody (basal Kv4.2 phosphorylation) (Kv4.2 [5]): 61.14%±8.74 % of control
